Measured values published in patent US20250032425A1, “FIRST IN CLASS USE OF ESTROGEN RECEPTOR BETA AGONISTS IN TREATING ANGELMAN SYNDROME AND RELEVANT AUTISM SPECTRUM DISORDERS” (BROWN UNIVERSITY, priority 2023, published 2025).
“Also recorded” adds a separate entry of the source.

What was measured:
Format in all cases: cell-based, human
UBE3A-deficient iOPCs = test: Ki67 (and PCNA) immunoblotting in UBE3A-knockdown iOPCs: compound screen and rescue of proliferation; conditions: for impact of UBE3A loss on OPC proliferation (FIG. 18F, 19G): ERβ activators of different structural classes; for effect of AC-186 to enhance proliferation of iOPCs with UBE3A knockdown (Ki67): MEK inhibitor with AC-186 co-treatment (10 μM, 24 hours); for restoration of Ki67 expression in compound screen: Ki67 immunoblotting normalized to siNC=1.0
Procedure: Given the scarcity of knowledge regarding UBE3A function in oligodendrocyte biology, a comprehensive exploration of various cellular functions was performed, leveraging the high-throughput capabilities of the iPSC-based methodology (e.g., as described herein). We selected over 45 compounds with known targeted cellular actions (Table 1). These were chosen based on their documented effects on UBE3A, their ability to promote oligodendrocyte development and myelination, or their protective 10 roles in neural tissue. UBE3A expression was modulated using siRNA, achieving a controlled reduction that decreased OPC proliferation by approximately 50%, as evidenced by Ki67 protein levels.
iPSC Culturing and Generation of Induced Human Brain Cells Including Oligodendroglia, Neurons (IN), Astrocytes (iAs) and Microglia (iMG) The generation of iPSC-derived human oligodendrocyte precursor cells (iOPCs) was carried out according to a previously published protocol by Vulakh and Yang et al., 2023 (Characterizing the Neuron-Glial Interactions by the Co-cultures of Human iPSC-Derived Oligodendroglia and Neurons. Methods Mol. Biol. 2683), which itself was a modification of an earlier protocol by Assetta et al., 2020 (Generation of Human Neurons and Oligodendrocytes from Pluripotent Stem Cells for Modeling Neuron-Oligodendrocyte Interactions. J Vis Exp.). The process began with the control iPSCs, which is a well-characterized control reference line acquired from the NIH-funded iPSC Neurodegenerative Disease Initiative (INDI, (Ramos, D. M., Skarnes, W. C., Singleton, A. B., Cookson, M. R., and Ward, M. E. (2021). Tackling neurodegenerative diseases with genomic engineering: A new stem cell initiative from the NIH. Neuron 109, 1080-1083. 10.1016/j.neuron.2021.03.022)), distributed by the Jackson Laboratory. These iPSCs were maintained in mTeSR plus medium (StemCell Technologies, #05825) and expanded in Stem Flex medium (Fisher Scientific. #A3349401) for the induction of neural progenitor cells (INPC). The iNPCs were derived by treating iPSCs with a commercial SMAD inhibitor medium (StemCell Technologies, #08582) for 7 days (Week 1). Subsequently, NPCs were further induced to become OPCs by a 7-day incubation (Week 2) with a chemically-defined OPC medium: DMEM/F12 medium (Thermo Fisher, #11320033) supplemented by 10 ng/ml PDGF-AA (R&D Systems, #221-AA-025), 1 μM SAG (Tocris, #4366), […] N-Acetyl-Cysteine (Millipore Sigma, #A9165-5G), 20 ng/mL bFGF (R&D Systems, #233-FB-025/CF), 1% N2 supplement (Thermo Fisher, #17502048), and 1% B27 supplement (Thermo Fisher, #17504044). […] The additional incubation with OL medium for 7-14 days (Week 4-5) yielded mature, myelinating OLs.
(§1) The siRNAs targeting UBE3A (Thermo Fisher, #4390815 and #4390816), estrogen receptors (Thermo Scientific #145909 for ESRβ, #145539 for ESRα, and #4390824 for GPER), and negative control (Thermo Scientific, #AM4615) were obtained commercially. The 10-20 nM final concentration was used with Lipofectamine RNAiMAX transfection reagent (Thermo Scientific #13778075) and incubated for at least 48 hours before the treatments of therapeutic compounds or other reagents.
Cells were collected by fast spin down in centrifuge tubes before lysis in RIPA buffer (ThermoFisher, #89901) supplemented with proteinase inhibitor cocktail (Sigma-Aldrich, #5892791001) on ice. Lysates were then spun down at 15000 rpm for 10 mins, the supernatant was collected and mixed with 4× Laemmle sample buffer (Bio-Rad, #1610747) and cooked 10 mins before SDS-PAGE and transferred with Bio-Rad fast transfer system, the membranes were blocked for one hour in 1× Tris Buffered Saline (TBS) with 1% Casein buffer (Bio-Rad, #1610782) and incubated with primary antibodies overnight at 4 degrees. […]

[1] = tested on: iOPCs expressing Cas9 and a sgRNA targeting UBE3A; test: EdU incorporation in iOPCs with CRISPR/Cas9 UBE3A depletion (Lenti-sgUBE3A #1-3); conditions: 10 μM; any of the sgRNAs
Procedure: The sgRNAs targeting UBE3A, and negative control were obtained from Applied Biological Materials Inc. Targeting sgRNA sequences against UBE3A are: sgRNA1, […]; sgRNA2, […]; sgRNA3, […]. These sgRNAs were integrated into the backbone of the negative control pLenti-U6-sgRNA-SFFV-Cas9-2A-Puro. All constructs were packaged into lentiviruses and concentrated by Lenti-X Concentrator (Takara Bio #631231). In each experiment, 5-10 μl of concentrated virus was administered into ˜70% confluent iOPCs cultures in 6-well plates. One day post-lentiviral transduction, iOPC cultures were treated with approximately 5 μg/ml Puromycin to isolate those iOPCs which are expressing Cas9/sgRNAs. Following a day of selection, the iOPCs were then seeded on gelatin-coated coverslips placed in 24-well plates at a density of 100,000 cells per well. After another day allowed for cell stabilization, treatment with either the vehicle control (DMSO), AC-186, DPN, or LY500307 commenced at a standard concentration of 10 μM. A final 24-hour period after this treatment saw the cells exposed to […] for three hours, preparing them for subsequent immunofluorescence staining.
The EdU labeling kit from ThermoFisher Scientific (#C10637) was used to trace cell proliferation by incubating iOPCs with 2 μM EdU for three hours before fixation. Following EdU incorporation, cells were fixed in 4% paraformaldehyde, blocked with normal serum, and stained with primary antibodies, Rabbit anti-Ki67 and Mouse anti-UBE3A. These steps were conducted according to the manual of the labeling kit and also detailed immunofluorescence staining protocols described below, to ensure specific detection of the proliferation marker Ki67 and the ubiquitin-protein ligase UBE3A in the cells for subsequent imaging analysis.

[2] = tested on: ERK/MAPK signaling pathway; test: ERK/MAPK and S6 activation in iOPCs by immunoblotting (phosphorylated to total ratio); conditions: MEK inhibitor added to UBE3A-depleted OPCs with AC-186
Source text: FIGS. 20A-20E depict the identification of ESR-β signaling pathway in regulating OPC proliferation impaired by UBE3A depletion. FIG. 20A: Immunofluorescence to track estrogen receptor (ESR) expression in OPCs, by staining of all 3 ESRs, ESR-α, ESR-β and GPER (top panels), in iOPCs co-labeled with UBE3A (middle panels) and DAPI; scale bar, 100 μm. […] FIG. 20B: Immunoblotting to assess OPC expression of individual ESRs, by analyzing protein levels of ESR-α, ESR-β and GPER in iOPCs treated with siNC or siUBE3A, normalized to GAPDH and expressed relative to the siNC condition (set as 1.0). After treatment with siUBE3A, expression of ESR-β was decreased, while expression of GPER was increased. n=5-6 experiments. FIG. 20C: The activation of the ERK/MAPK signaling pathway in OPCs, particularly downstream of ESR-β, was analyzed in iOPCs subjected to 6 knockdown conditions: siNC, siUBE3A, siESRα, siESRβ, and combinations of siUBE3A with siESRα or siESRβ. These were followed by treatment with vehicle control or the ESR-β agonist AC-186 (10 μM, 30 min). The activation of ERK and its substrate S6 was determined by the ratio of phosphorylated to total ERK and S6 levels, adjusted relative to the vehicle control group (standard value of 1.0). ERK phosphorylation and S6 phosphorylation was decreased in cells treated with siESRβ, or siESRβ and siUBE3A combined. n=3 experiments. FIG. 20D: Immunoblotting to evaluate the role of ERK/MAPK activation in the restoration of OPC proliferation following ESR-β activation, with the addition of ERK phosphorylation inhibitors U0126 or PD98059 to UBE3A-depleted OPCs, with or without AC-186 co-treatment (10 μM. 24 hours). The quantification of Ki67 expression and UBE3A levels, being normalized to β-tubulin (TUBB1) and compared to the siNC condition (value of 1.0). n=5 experiments. FIG. 20E: A schematic depicting the regulatory role of ESR-β signaling pathway in OPC proliferation, identified by combining genetic knockdown techniques and pharmacological interventions. Activation of ESR-β selectively triggers the ERK/MAPK pathway, as shown by ERK phosphorylation and the ERK substrate S6 activation, essential for cell proliferation. […] As applicable: statistical significance was determined using One-way ANOVA followed by post-hoc comparisons, with selected comparisons presented. Significance levels marked as *p<0.05. ** p<0.005. *** p<0.001. **** p<0.0001, ns not significant, across relevant comparisons.
as §1
Cells were collected by fast spin down in centrifuge tubes before lysis in RIPA buffer (ThermoFisher, #89901) supplemented with proteinase inhibitor cocktail (Sigma-Aldrich, #5892791001) on ice. Lysates were then spun down at 15000 rpm for 10 mins, the supernatant was collected and mixed with 4× Laemmle sample buffer (Bio-Rad, #1610747) and cooked 10 mins before SDS-PAGE and transferred with Bio-Rad fast transfer system, the membranes were blocked for one hour in 1× Tris Buffered Saline (TBS) with 1% Casein buffer (Bio-Rad, #1610782) and incubated with primary antibodies overnight at 4 degrees. After 3 times washing in TBST washing buffers (ThermoFisher, #28352), the membranes were incubated with HRP conjugated antibodies and developed with Clarity Max™ Western ECL Substrate (Bio-Rad, #1705062) before being filmed in the iBright imaging system.

[3] = tested on: AS iOPCs differentiated into iOLs; test: Differentiation of AS patient-derived iOPCs into iOLs (MAG, CNPase, MBP); conditions: AC-186 10 μM or clemastine 2.5 μM, 72 hours
[4] = tested on: UBE3A-deficient iOPCs and iOLs; test: Oligodendrocyte differentiation of UBE3A-deficient iOPCs into iOLs (immunoblotting of Ki67, MAG, CNPase); conditions: UBE3A-deficient iOLs; AC-186 (10 µM), clemastine (2.5 μM); 3 days
Procedure: FIG. 25C: Immunoblotting was conducted to assess the impact of UBE3A depletion on ESR-β expression during oligodendrocyte differentiation. Protein levels of ESR-β in UBE3A-deficient iOPCs and subsequently differentiated iOLs were quantified, normalized against the loading control GAPDH, and expressed relative to the iOPC+siNC control condition (set at 1.0). […] Levels of Ki67 and Myelin Associated Glycoprotein (MAG) were measured in UBE3A-deficient iOPCs and iOLs differentiated from them, normalized against GAPDH, and compared to the iOPC+siNC condition. n=4 experiments. FIG. 25E: Immunoblotting to examine the role of UBE3A for OPC self-renewal and oligodendrocyte differentiation across different developmental stages. Expression of maturation and myelination markers (MBP, MAG, PLP1, CNPase) was quantified following UBE3A depletion timed from iOPCs to pre-iOLs, normalized against TUBB1. and compared to the iOPC+siNC control condition (set at 1.0). n=4 experiments.

[5] = siUBE3A cells, 10 μM, 24 hours, normalized to GAPDH

Oc1ccc([C@@H]2Oc3ccc(O)cc3[C@@H]3CCC[C@@H]32)cc1 [LY500307, reference compound]
impact of UBE3A loss on OPC proliferation (FIG. 18F, 19G) (UBE3A-deficient iOPCs): similarly mitigated the impact of UBE3A loss on OPC proliferation | Ki67 expression (FIG. 19G) (UBE3A-deficient iOPCs; [5]): increased expression | PCNA expression (FIG. 19G) (UBE3A-deficient iOPCs; [5]): increased expression | number of EdU+ cells [1]: increased the number of EdU+ cells

O=C1C[C@@H](c2ccc(O)cc2)Oc2cc(O)ccc21 [Liquiritigenin, reference compound]
impact of UBE3A loss on OPC proliferation (FIG. 18F, 19G) (UBE3A-deficient iOPCs): similarly mitigated the impact of UBE3A loss on OPC proliferation

COc1cccc(-c2cc(=O)c3ccccc3o2)c1N [PD98059, reference compound]
ERK/MAPK pathway activation stimulated by AC-186 [2]: inhibited | effect of AC-186 to enhance proliferation of iOPCs with UBE3A knockdown (Ki67) (UBE3A-deficient iOPCs): reduced

N#CC(=C(/N)Sc1ccccc1N)/C(C#N)=C(\N)Sc1ccccc1N [U0126, reference compound]
ERK/MAPK pathway activation stimulated by AC-186 [2]: inhibited | effect of AC-186 to enhance proliferation of iOPCs with UBE3A knockdown (Ki67) (UBE3A-deficient iOPCs): reduced

Oc1ccc(-c2nc3cc(O)cc(Br)c3o2)cc1 [WAY-200070, reference compound]
impact of UBE3A loss on OPC proliferation (FIG. 18F, 19G) (UBE3A-deficient iOPCs): similarly mitigated the impact of UBE3A loss on OPC proliferation

CN1CCC[C@@H]1CCO[C@](C)(c1ccccc1)c1ccc(Cl)cc1 [clemastine, Clemastine, reference compound]
oligodendrocyte differentiation (MAG, CNPase, MBP) [3]: positively influenced the differentiation process | oligodendrocyte differentiation (MAG), FIG. 25D [4]: enhanced differentiation

FGF: fibroblast growth factor; bFGF, human recombinant
restoration of Ki67 expression in compound screen (UBE3A-deficient iOPCs; 10 μM, 24 hours): restored; also recorded: effectively normalized proliferation levels; also recorded: Statistically significant; also recorded: capable of restoring Ki67 expression

B1: BDNF: brain-derived neurotrophic factor, human recombinant; neurotrophin that belongs to NGF-beta family (protein, UniProt P23560 19-247, looked up)
Neurotrophic factor BDNF …: APMKEANIRGQGGLAYPGVRTHGTLESVNGPKAGSRGLTSLADTFEHVIEELLDEDQKVRPNEENNKDADLYTSRVMLSSQVPLEPPLLFLLEEYKNYLDAANMSMRVRRHSDPARRGELSVCDSISEWVTAADKKTAVDMSGGTVTVLEKVPVSKGQLKQYFYETKCNPMGYTKEGCRGIDKRHWNSQCRTTQSYVRALTMDSKKRIGWRFIRIDTSCVCTLTIKRGR
restoration of Ki67 expression in compound screen (UBE3A-deficient iOPCs; 10 μM, 24 hours): restored; also recorded: effectively normalized proliferation levels; also recorded: Statistically significant; also recorded: capable of restoring Ki67 expression
